{"source": "paper PMC7106779", "about": "(2017)", "note": "Entries after “also recorded” stand apart in the source; their conditions may differ."}
{"system": "Sap9", "assay": "purified recombinant Sap9", "conditions": "C. albicans, 37 °C, up to 2 h"}
{"sequence": "DSHAKRHHGYKRKFHEKHHSHRGY", "cleaved bond": "K17-H18; also recorded: R12-K13; also recorded: K13-F14; also recorded: H18-H19"}
{"sequence": "DSHARRHHGYKRKFHEKHHSHRGY", "fragment found": "amino acids 1–17; also recorded: amino acids 18–24"}
{"sequence": "DSHALRHHGYKRKFHEKHHSHRGY", "fragment found": "amino acids 1–17; also recorded: amino acids 18–24"}
{"sequence": "DSHAKRHHGYRRKFHEKHHSHRGY", "fragment found": "amino acids 1–17; also recorded: amino acids 18–24"}
{"sequence": "DSHAKRHHGYLRKFHEKHHSHRGY", "fragment found": "amino acids 1–17; also recorded: amino acids 18–24"}
{"sequence": "DSHAKRHHGYKRRFHEKHHSHRGY", "fragment found": "amino acids 1–17; also recorded: amino acids 18–24"}
